{"source": "patent US6110895A", "about": "“Method of promoting healing in skin grafts” (University of Southern California, priority 1997, dated 2000)", "key": {"[1]": {"details": "intracerebroventricular infusion at concentrations 1,000 times higher than that of AII; cited from earlier work"}, "[2]": {"details": "cited from earlier work"}, "rat carotid artery": {"test_system": "rat carotid artery", "details": "cited from earlier work; for neointimal formation: similar model, Janiak et al. 1992, CGP 42112 infused perivascularly 14 days, losartan low doses"}, "[3]": {"test_system": "full thickness dermal wounds", "assay": "Wound closure by analogs of AII and AIII, Table 4 (Example 7)", "assay_type": "in vivo, Sprague Dawley rats", "details": "percentage of vehicle-treated control wound, method of Example 6 (100 μg/wound, days 0-4)", "source_text": "Female Sprague Dawley rats weighing 175-200 grams were obtained from Simonsen Laboratories (Gilroy, Calif.). On the day of surgery, rats received intramuscular ketamine/rompum anesthesia prior to preparation for surgery. The rats were shaved and scrubbed with betadine. Two 1.5×1.5 cm full thickness dermal wounds were created on the dorsal surface of each rat. Following excision of the skin, the size of the wound was outlined on a glass slide to establish the baseline wound size. The medicament was administered in 100 μl of 10% low viscosity carboxymethyl cellulose (Sigma). The p-NH2 -Phe6-AII test material was administered in a randomized fashion with all materials being tested at 100 μg/wound. Control wounds were treated with vehicle only. After administration of the materials, the rats were bandaged and allowed to recovery from anesthesia. The rats were treated with an additional 100 μg of peptide formulation on days 1-4 after surgery. On days 2, 4, 7 and 9 the area of the skin wounds were measured under methoxyflurane anesthesia. The area of the wound was determined by: (1) tracing the wound shape onto graph paper (1×1 mm squares); (2) cutting out the shape; (3) weighing the paper and comparing the weight with a 1.5×1.5 cm paper cutout; and (4) counting the number of squares on the graph paper. In addition, on days 2, 4 and 7 the area of granulation tissue was similarly determined.\nAnalogs of AII and AIII having the structures disclosed in Table 4 were prepared using an automated peptide synthesizer and methods familiar to those having ordinary skill in the art. Each of the analogs was tested for its ability to accelerate wound healing essentially according to the method of Example 6. Results of procedures used to determine the extent of wound closure at days 4 and 9 measured as a percentage of a vehicle-treated control wound are also presented in Table 4. Since all of the analogs were not tested during the same experimental procedure, AII was included as a positive control for each group of peptides tested. As designated below, peptide analogs are identified as analogs of AII or AIII having amino acid substitutions at positions indicated by superscripts. Thus, for example, Gly^4 -AIII is the designation for an AIII analog having a Gly residue substituted at position 4 of AIII. Results from procedures using analogs that were tested as a group are grouped together in the following Table."}, "aminopeptidase": {"test_system": "aminopeptidase", "details": "reported in literature; cited from earlier work"}, "[4]": {"test_system": "full thickness dermal wounds", "assay": "Healing of full thickness dermal wounds with AIII (Example 3)", "assay_type": "in vivo, Sprague Dawley rats", "details": "2×2 cm wounds; 3 μg and 10 μg dosages; FIG. 8", "source_text": "Twelve week old male Sprague Dawley rats were obtained from Simonsen Laboratories (Gilroy, Calif.). On the date of surgery, rats received intramuscular ketamine/rompum anesthesia prior to preparation for surgery. The rats were shaved and scrubbed with betadine. Four 2×2 cm full thickness dermal wounds were created on the dorsal surface of the rat. Following excision of the skin, the size of the wound was outlined on a glass slide to establish the baseline wound size. The medicament was administered in 100 μl of a solution comprising 10% HYDRON, 1% polyethylene glycol (MW 400) and 60% ethanol. Test materials were administered in a randomized fashion. AIII was evaluated at 3 and 10 μg/wound. Controls were treated with vehicle only. After administration of the materials, the rats were bandaged and allowed to recover from anesthesia. At days 2, 5, 6, 8 and 10 the area of the skin wounds were measured under methoxyflurane anesthesia. The area of the wound was determined by: (1) tracing the wound shape onto graph paper (1×1 mm squares); (2) cutting out the shape; (3) weighing the paper and comparing the weight with a 2×2 cm paper cutout; and (4) counting the number of squares."}}, "data": [{"compound": "Ile-His-Pro-Phe (IHPF; printed: Ile-His-Pro-Phe) [AII(5-8)]", "values": [{"measurement": "effect on blood pressure", "setting": "[1]", "value": "minimal effect on blood pressure"}]}, {"compound": "Asp-Arg-Val-Tyr-Ile-His-Pro (DRVYIHP; printed: Asp-Arg-Val-Tyr-Ile-His-Pro) [AII(1-7)]", "values": [{"measurement": "amount needed for pressor response comparable to AII", "setting": "[2]; Benter et al. 1993", "value": "about 10,000 times"}, {"measurement": "dose effective on blood pressure relative to the dose of AII", "setting": "[2]; depending on model and route of administration", "value": "10,000-100,000 times"}]}, {"compound": "CGP 42112", "values": [{"measurement": "neointimal formation", "setting": "rat carotid artery", "value": "prevented neointimal formation"}]}, {"compound": "homoSer^4 -AII [GSD41B]", "values": [{"measurement": "extent of wound closure, % Control (Day 4)", "setting": "[3]", "value": 77.6, "unit": "%"}, {"measurement": "extent of wound closure, % Control (Day 9)", "setting": "[3]", "value": 55.8, "unit": "%"}]}, {"compound": "Cc1cc(Cn2cnc3c2C[C@@H](C(=O)O)N(C(=O)C(c2ccccc2)c2ccccc2)C3)ccc1N(C)C", "note": "[PD 123319]", "values": [{"measurement": "reduction of intimal hyperplasia", "setting": "rat carotid artery; Pratt et al. 1992", "value": 73, "unit": "%"}]}, {"compound": "Asp-Arg-Val-Tyr(PO3)2 -Ile-His-Pro-Phe [[Tyr(PO3)2]^4 -AII]", "values": [{"measurement": "extent of wound closure, % Control (Day 4)", "setting": "[3]", "value": 81.3, "unit": "%"}, {"measurement": "extent of wound closure, % Control (Day 9)", "setting": "[3]", "value": 61.9, "unit": "%"}]}, {"compound": "CC[C@H](C)[C@H](NC(=O)[C@H](Cc1ccc(O)cc1)NC(=O)[C@@H](NC(=O)[C@H](CCCNC(=N)N)NC(=O)CNC)C(C)C)C(=O)N[C@@H](Cc1cnc[nH]1)C(=O)N1CCC[C@H]1C(=O)N[C@@H](Cc1ccccc1)C(=O)O", "note": "[Analog 4, Sar-Arg-Val-Tyr-Ile-His-Pro-Phe]", "values": [{"measurement": "cleavage by aminopeptidase", "setting": "aminopeptidase", "value": "resistant to cleavage by aminopeptidase"}]}, {"compound": "CC[C@H](C)[C@H](NC(=O)[C@H](Cc1ccc(O)cc1)NC(=O)[C@@H](NC(=O)[C@@H](N)CCCNC(=N)N)C(C)C)C(=O)N[C@@H](Cc1c[nH]cn1)C(=O)N1CCC[C@H]1C(=O)N[C@@H](Cc1ccccc1)C(=O)O", "note": "[AIII, Arg-Val-Tyr-Ile-His-Pro-Phe]", "values": [{"measurement": "wound closure relative to vehicle-treated control", "setting": "[4]", "value": "substantially accelerated"}]}, {"compound": "CCCCc1nc(Cl)c(CO)n1Cc1ccc(-c2ccccc2-c2nn[nH]n2)cc1", "note": "[losartan]", "values": [{"measurement": "decrease of intimal area", "setting": "rat carotid artery; Pratt et al. 1992", "value": 95, "unit": "%"}, {"measurement": "neointimal formation, higher doses", "setting": "rat carotid artery; other studies, losartan at higher doses", "value": "effective"}, {"measurement": "neointimal formation", "setting": "rat carotid artery", "value": "ineffective"}]}]}
